Measurements as given in US5691338A, “1,2-dithiole-3 thiones for the treatment of reverse transcriptase-dependent viral infections” (priority 1995, dated 1997).
Where two headings read alike, the source gives them in different places.

What was measured:
[1] = tested on: glutathione levels (GSH) in H9 cells; assay: Elevation of glutathione (GSH) levels in H9 cells; assay type: cell-based, human; conditions: for fold induction at 30 µM / fold induction at 60 µM / fold induction at 120 µM: Homo sapiens, read-out: Glutathione levels, treated to control value
Description: Five ml of medium was added to T-25 flasks and DMSO containing tests compounds were added to a final concentration of 0.1%. Control medium contained 0.1% DMSO. After the drugs were added, 5×10^6 cells in 5 ml of medium was added to each T-25 flask. The cells were grown at 37° C. in a humidified incubator supplemented with 5% CO2 until harvested (N=3 flasks/group). At the indicated times, cells were isolated by centrifugation (500×g×10 min) and were washed three times by adding 10 ml of ice-cold DPBS, mixing, and centrifuging in a refrigerated centrifuge (500×g×10 min) to isolate the cell pellets. The cells were then lysed by the addition of 400 μl of ice-cold DPBS containing 0.5% Triton X-100 and vortexing. Supernatants were then isolated by centrifuging the lysates (5000×g×20 min). Samples were kept on ice or refrigerated until the reagents for QR or GSH spectrophotometric assays were added to the aliquoted microtiter plates. QR levels were determined by aliquoting 10 μl/well of supernatant in a 96-well plate and measuring the activity by the assay described by Prochaska and Santamaria (20) except that the final NADP^+ concentration was 200 μM (21). Samples were assayed in quadruplicate, and dicoumarol inhibitable-rates (which generally represented less than 5% of the total rate) were also measured. Spectrophotometric blanks contained 10 μl of DPBS with 0.5% Triton X-100. For the GSH assay, 300 μl of sample was placed in a centricon-10microconcentrator and centrifuged (5000×g×45 min) until enough ultrafiltrate could be collected. 50 μl/well of sample in quadruplicate was placed in a 96 well "half-area" plate after which 20 μl of 1 mM Ellman's reagent dissolved in DPBS was added. The yellow color (22) developed within 5 min and was scanned with a uvmax microtiter scanner (Palo Alto, Calif.) at 405 nm. Spectrophotometric blanks contained 50 μl DPBS with 0.5% Triton X-100 and 20 μl of 1 mM Ellman's reagent in DPBS. The optical densities of the specimens were calibrated to a GSH standard curve. Protein contents were determined in 3 ml cuvettes by the Bradford method (23). The protein content in the ultrafiltrates employed for GSH determinations were negligible (<0.01 mg/ml).

[2] = cited from earlier work
[3] = target: T1, HIV-1 reverse transcriptase (RT) (Human immunodeficiency virus type 1 group M subtype B, UniProt P04585); assay: Inhibition of recombinant HIV-1 reverse transcriptase (TTP incorporation); assay type: biochemical; conditions: for Ki: Segal transformation of Dixon plots
T1 construct: Recombinant HIV-1 reverse transcriptase (RT) was obtained from Worthington (Freehold, N.J.); purchased Worthington (Freehold, N.J.)
Description: Reverse transcriptase assays were performed as described by Flexner, et al. (25) using recombinant HIV-1 RT as the source of enzyme. Dilutions and assay were carried out in 96-well "half-area" plates. The enzyme with various concentrations of test compounds were dissolved in DPBS containing 1% w/v BSA and diluted in 50 μl volumes; 10 μl aliquots in triplicate were transferred to another plate for the enzyme assay. The reactions were initiated by the addition of 25 μl/well of buffer containing 50 mM Tris.cndot.Cl (pH 8.0), 75 mM KCl, 1 mM dithiothreitol, 2 mM MgCl2, 5 μg/ml poly(A), 2.5 μg/ml oligo (dT), 10 μCi/ml ^32 p TTP with or without unlabeled TTP. […] TTP incorporation was measured by spotting 20 μl of the reaction cocktail onto DE81 paper, washing the paper with 4×5 min washes of 300 mM NaCl and 30 mM sodium citrate (pH 7.0), drying the paper, and counting the paper by liquid scintillation counting. The assays performed with oltipraz and 1,2-dithiole-3-thione contained 0.29% final concentration DMSO. This concentration of DMSO had no effect on RT activity.

[4] = tested on: H9 cells; assay: Cytotoxicity in H9 cells by trypan blue exclusion; assay type: cell-based, human; conditions: concentrations up to 120 μM, H9 cells
[5] = tested on: HIV-1 (HTLVIIIB); assay: microbe, parasite or virus in culture; conditions: for synergy in inhibiting HIV-1 replication: p24 release / IFA, H9 cells, high viral inhibition
Description: The effects for test compounds were assessed by means of both IFA and p24 release. In general, the following protocol was followed: H9 cells were infected with HIV-1 at 1000 50% infective doses of viruses/10^6 cells. Virus was allowed to adsorb for 1 h, after which unadsorbed virus was removed by centrifugation. The cells were resuspended and washed twice with PBS (without Ca^+2 or Mg^+2 salts) and centrifuged to collect the cell pellet (150×g×10 min). Cells were suspended in fresh medium and added at a final cell density of 500,000 cells/ml in a 96-well plate with media containing 0.1% DMSO and various concentrations of test compounds. The cells were re-fed freshly prepared media containing 0.1% DMSO±test compounds on day four (for preinduction experiments, cells were exposed to inducers on days -2, 0, and +4 days relative to infection). After seven days, cells were examined for cytoxicity by trypan blue exclusion, the degree of infection with HIV-1 by IFA, and the supernatants were assayed for p24 levels according to the manufacturer's directions. The IFA procedure can be summarized as follows: The cells were washed twice in PBS and were placed in 5 mm 12-well slides. After allowing the slides to dry and fixing the cells with acetone for 5 min, 10 μl of HIV-1 positive serum in 40 μl PBS was added to each well and allowed to incubate at 37° C. for 30 min. After incubation, the slides were washed twice with PBS and incubated at 37° C. for 30 min with 2.5 μl goat anti-human IgG-fluorescein isothiocyanate conjugate in 50 μl PBS containing 0.01% Evans Blue per well. The slides were then washed twice with PBS, dried, and mounted with 50% glycerol in PBS, and scored for the percentage of fluorescent cells by fluorescent microscopy.
Statistical significance for GSH and QR levels were established by the unpaired t test using the INSTAT statistics program (Graphpad, San Diego, Calif.). The Ki of oltipraz was determined by performing Segal transformations (26) of Dixon plots. […] Calculations were performed on spreadsheets using Lotus 1-2-3 software (Cambridge, Mass.).

[6] = Dixon plots, listed as oltipraz

## Cc1c(-c2cnccn2)ssc1=S [compound 11, 4-methyl-5-(2-pyrazinyl)-1,2-dithiole-3-thione]
[1]; 24 h, 30 μM
  Glutathione Levels: 62.0 ± 2.0 nmol/mg
[1]; 24 h, 60 μM
  Glutathione Levels: 83.5 ± 1.7 nmol/mg
[1]; 24 h, 120 μM
  Glutathione Levels: 109 ± 28 nmol/mg
[1]; 48 h, 30 μM
  Glutathione Levels: 52.7 ± 2.9 nmol/mg
[1]; 48 h, 60 μM
  Glutathione Levels: 68.0 ± 2.9 nmol/mg
[1]; 48 h, 120 μM
  Glutathione Levels: 79.7 ± 0.28 nmol/mg
[1]; 72 h, 30 μM
  Glutathione Levels: 40.4 ± 4.7 nmol/mg
[1]; 72 h, 60 μM
  Glutathione Levels: 47.3 ± 4.6 nmol/mg
[1]; 72 h, 120 μM
  Glutathione Levels: 75.0 ± 8.6 nmol/mg
[1]; H9, 24 h
  fold induction at 30 µM: 1.1
  fold induction at 60 µM: 1.48
  fold induction at 120 µM: 1.93
[1]; H9, 48 h
  fold induction at 30 µM: 1.52
  fold induction at 60 µM: 1.96
  fold induction at 120 µM: 2.28
[1]; H9, 72 h
  fold induction at 30 µM: 0.86
  fold induction at 60 µM: 1.01
  fold induction at 120 µM: 1.6
[1]; dose- and time-dependent, H9 cells
  elevation of GSH: able to elevate both GSH and QR levels
[2]; in vivo
  tolerability at anti-HIV-1 doses: well tolerated
[2]; single or split doses of 20-35 mg/kg, treatment of schistosomiasis
  tolerability of high doses: can be tolerated
[3]; [6]
  type of inhibition with respect to TTP: non-competitive inhibitor
  type of inhibition with respect to poly(A):oligo(dT): mixed inhibitor
[3]; N=2 experiments, read-out: Ki with respect to TTP
  Ki: 183 ± 50 µM
[3]; N=3 experiments, read-out: Ki with respect to poly(A):oligo(dT)
  Ki: 189 ± 29 µM
[3]; moderate to high levels of inhibition
  synergy as inhibitors of reverse transcriptase: synergistically with AZT 5'-triphosphate
[3]; poly(A):oligo(dT) and TTP as substrates
  inhibition of recombinant HIV-1 reverse transcriptase: inhibitor
[4]
  cytotoxicity: non-cytotoxic
[5]; Human immunodeficiency virus 1, H9, read-out: IC50 as determined by p24 antigen release assays
  IC50: 14.8 ± 3.1 µM
[5]; Human immunodeficiency virus 1, H9, read-out: median dose (p24 release)
  IC50: 19.4 µM
[5]; listed as Oltipraz
  synergy in inhibiting HIV-1 replication: highly synergistic with azidothymidine (AZT)
[5]; listed as oltipraz
  synergy in inhibiting HIV-1 replication: acts synergistically with AZT
